Laboratory results published in US20240165052A1 (priority 2021, published 2024).

What was measured:
[1] = test system: porcine mucosa (mucosa oesophagus); test: in vitro permeation of (S)-ketamine, Franz diffusion cell; details: 37° C.
[2] = pH of phosphate buffer (donor medium) with (S)-ketamine HCl or OTF; format: physicochemical
[3] = at 20° C.; cited from earlier work

## CNC1(c2ccccc2Cl)CCCCC1=O (racemic) [(S)-ketamine, (S)-(±)-2-(2-chlorophenyl)-2-(methylamino)cyclohexan-1-one]
[1]; 2.77 mg (S)-ketamine HCl on mucosa, acidic buffer as donor, FIG. 1
  permeation rate of S-ketamine: lowest permeation rate
[1]; 2.77 mg (S)-ketamine HCl on mucosa, neutral buffer as donor, FIG. 1
  permeation of S-ketamine: best
[1]; 0.287 cm^2 OTF formulation 1 + 70 μL acidic buffer, FIG. 2
  permeation rate of S-ketamine: lowest permeation rate
[1]; 0.287 cm^2 OTF formulation 1 + 70 μL alkaline buffer, FIG. 2
  permeation of S-ketamine: best

## CN[C@]1(c2ccccc2Cl)CCCCC1=O.Cl [(S)-ketamine HCl]
[2]; acidic buffer (pH 4.99 at 22° C.)
  Buffer + (S)-ketamine HCl pH at 22° C.: 4.92
[2]; alkaline buffer (pH 8.33 at 22° C.)
  Buffer + (S)-ketamine HCl pH at 22° C.: 7.81
[2]; neutral buffer (pH 7.46 at 22° C.)
  Buffer + (S)-ketamine HCl pH at 22° C.: 6.64

## NC(CO)(CO)CO [TRIS, tris(hydroxymethyl)aminomethane]
[3]
  pKs: 8.2
